Drawing on PubChem BioAssay AID1259407 (Chemical Carcinogenesis Research Information System (CCRIS), 2018), this text covers mutagenic call for 10 compounds.

The data set deals with CCRIS mutagenicity, Ames/micronucleus/aberration tests. The data set is described as follows: CCRIS mutagenicity studies.
Where [1] appears, read: Test System: AMES SALMONELLA TYPHIMURIUM, Strain/Indicator: TA98, Metabolic Activation: HAMSTER, LIVER, S-9, AROCLOR 1254 (10%), Method: PREINCUBATION
[2] abbreviates: Test System: AMES SALMONELLA TYPHIMURIUM, Strain/Indicator: TA98, Metabolic Activation: NONE, Method: PREINCUBATION
Where [3] appears, read: Test System: AMES SALMONELLA TYPHIMURIUM, Strain/Indicator: TA98, Metabolic Activation: RAT, LIVER, S-9, AROCLOR 1254 (10%), Method: PREINCUBATION
Where [4] appears, read: Test System: AMES SALMONELLA TYPHIMURIUM, Strain/Indicator: TA100, Metabolic Activation: HAMSTER, LIVER, S-9, AROCLOR 1254 (10%), Method: PREINCUBATION
Where [5] appears, read: Test System: AMES SALMONELLA TYPHIMURIUM, Strain/Indicator: TA100, Metabolic Activation: NONE, Method: PREINCUBATION
The mark [6] stands for this setting: Test System: AMES SALMONELLA TYPHIMURIUM, Strain/Indicator: TA100, Metabolic Activation: RAT, LIVER, S-9, AROCLOR 1254 (10%), Method: PREINCUBATION
[7] abbreviates: Test System: AMES SALMONELLA TYPHIMURIUM, Strain/Indicator: TA1535, Metabolic Activation: HAMSTER, LIVER, S-9, AROCLOR 1254 (10%), Method: PREINCUBATION
The mark [8] stands for this setting: Test System: AMES SALMONELLA TYPHIMURIUM, Strain/Indicator: TA1535, Metabolic Activation: NONE, Method: PREINCUBATION
[9] abbreviates: Test System: AMES SALMONELLA TYPHIMURIUM, Strain/Indicator: TA1535, Metabolic Activation: RAT, LIVER, S-9, AROCLOR 1254 (10%), Method: PREINCUBATION
The mark [10] stands for this setting: Test System: AMES SALMONELLA TYPHIMURIUM, Strain/Indicator: TA1537, Metabolic Activation: HAMSTER, LIVER, S-9, AROCLOR 1254 (10%), Method: PREINCUBATION
[11] abbreviates: Test System: AMES SALMONELLA TYPHIMURIUM, Strain/Indicator: TA1537, Metabolic Activation: NONE, Method: PREINCUBATION
Where [12] appears, read: Test System: AMES SALMONELLA TYPHIMURIUM, Strain/Indicator: TA1537, Metabolic Activation: RAT, LIVER, S-9, AROCLOR 1254 (10%), Method: PREINCUBATION
The mark [13] stands for this setting: Test System: AMES SALMONELLA TYPHIMURIUM, Strain/Indicator: TA98, Metabolic Activation: RAT, LIVER, S-9, AROCLOR 1254, Method: STANDARD PLATE.
[14] abbreviates: Test System: AMES SALMONELLA TYPHIMURIUM, Strain/Indicator: TA100, Metabolic Activation: RAT, LIVER, S-9, PHENOBARBITAL AND 5,6-BENZOFLAVONE, Method: PREINCUBATION
The mark [15] stands for this setting: Test System: AMES SALMONELLA TYPHIMURIUM, Strain/Indicator: TA97, Metabolic Activation: NONE, Method: STANDARD PLATE.
Where [16] appears, read: Test System: AMES SALMONELLA TYPHIMURIUM, Strain/Indicator: TA98, Metabolic Activation: NONE, Method: STANDARD PLATE.
Setting [17] is: Test System: AMES SALMONELLA TYPHIMURIUM, Strain/Indicator: TA100, Metabolic Activation: NONE, Method: STANDARD PLATE.
Where [18] appears, read: Test System: AMES SALMONELLA TYPHIMURIUM, Strain/Indicator: TA100, Metabolic Activation: RAT, LIVER, S-9, AROCLOR 1254, Method: STANDARD PLATE.

Calls of active or inactive are those of the source. The rule behind the calls is not given here.

As to `O=C1OC(=O)c2c(Cl)c(Cl)c(Cl)c(Cl)c21`, the mutagenic call reads like this: (End Point: IN VITRO CHROMOSOMAL ABERRATIONS, Test System: CHINESE HAMSTER OVARY CELLS, Metabolic Activation: NONE) “inactive; negative”; (End Point: IN VITRO CHROMOSOMAL ABERRATIONS, Test System: CHINESE HAMSTER OVARY CELLS, Metabolic Activation: RAT, LIVER, S-9, AROCLOR 1254) “inactive; negative”; under setting [1], “inactive; negative”; under setting [2], “inactive; negative”; under setting [3], “inactive; negative”; under setting [4], “inactive; negative”. Further, the mutagenic call runs as follows: under setting [5], “inactive; negative”; under setting [6], “inactive; negative”; under setting [7], “inactive; negative”; under setting [8], “inactive; negative”; under setting [9], “inactive; negative”; under setting [10], “inactive; negative”. Moreover, the mutagenic call is, setting by setting: under setting [11], “inactive; negative”; under setting [12], “inactive; negative”.
For the compound `O[C@@H]1C=Cc2c(cc3ccc4cccc5ccc2c3c45)[C@@H]1O`, the mutagenic call under setting [13] is “active; positive”.
As to `CC(=O)Nc1cccc(N)c1C(=O)O`, the mutagenic call was “inactive; negative” under setting [2]; “active; positive” (Test System: AMES SALMONELLA TYPHIMURIUM, Strain/Indicator: TA98, Metabolic Activation: RAT, LIVER, S-9, PHENOBARBITAL AND 5,6-BENZOFLAVONE, Method: PREINCUBATION); “inactive; negative” under setting [5]; “inactive; negative” under setting [14].
With `C1=Cc2c3ccccc3cc3c2c1cc1ccccc13`, the mutagenic call was “active; positive” (Test System: CHINESE HAMSTER OVARY, Strain/Indicator: V-79/6-THIOGUANINE, Metabolic Activation: RAT, LIVER, S-9, AROCLOR 1254, Method: FLASK ASSAY) and “active; positive” (Test System: CHINESE HAMSTER V-79, Strain/Indicator: V-79/6-THIOGUANINE, Metabolic Activation: RAT, LIVER, S-9, AROCLOR 1254, Method: SUSPENSION/PLATE).
`N=c1c2ncn(C(c3ccccc3)(c3ccccc3)c3ccccc3)c2ncn1O`: the mutagenic call is, setting by setting: under setting [15], “inactive; negative”; (Test System: AMES SALMONELLA TYPHIMURIUM, Strain/Indicator: TA97, Metabolic Activation: RAT, LIVER, S-9, AROCLOR 1254, Method: STANDARD PLATE) “inactive; negative”; under setting [16], “inactive; negative”; under setting [13], “active; positive”; under setting [17], “inactive; negative”; under setting [18], “inactive; negative”.
Consider `C=COC(=O)C=C`, for which the mutagenic call (Test System: AMES SALMONELLA TYPHIMURIUM, Strain/Indicator: TA102, Metabolic Activation: RAT, LIVER, S-9, PHENOBARBITAL AND 5,6-BENZOFLAVONE, Method: STANDARD PLATE) is “inactive; negative”; the mutagenic call (Test System: AMES SALMONELLA TYPHIMURIUM, Strain/Indicator: TA2638, Metabolic Activation: RAT, LIVER, S-9, PHENOBARBITAL AND 5,6-BENZOFLAVONE, Method: STANDARD PLATE) is “inactive; negative”; the mutagenic call (Test System: E. COLI, Strain/Indicator: WP2 (PKM101), Metabolic Activation: RAT, LIVER, S-9, PHENOBARBITAL AND 5,6-BENZOFLAVONE, Method: STANDARD PLATE) is “inactive; negative”; the mutagenic call (Test System: E. COLI, Strain/Indicator: WP2 UVRA (PKM101), Metabolic Activation: RAT, LIVER, S-9, PHENOBARBITAL AND 5,6-BENZOFLAVONE, Method: STANDARD PLATE) was “inactive; negative”.
Turning to `c1ccc2c(c1)ccc1cccnc12`, the mutagenic call reads like this: under setting [18], “inactive; negative”; (Test System: AMES SALMONELLA TYPHIMURIUM, Strain/Indicator: TA100, Metabolic Activation: RAT, LIVER, S-9, PCB, Method: STANDARD PLATE) “active; positive”; under setting [14], “inactive; negative”.
In the case of `CC1(C)[C@H](C(=O)OCc2cccc(Oc3ccccc3)c2)[C@@H]1C=C(Cl)Cl`, the mutagenic call reads like this: under setting [15], “inactive; negative”; (Test System: AMES SALMONELLA TYPHIMURIUM, Strain/Indicator: TA97, Metabolic Activation: RAT, LIVER, S-9, PHENOBARBITONE, Method: STANDARD PLATE) “inactive; negative”; under setting [16], “inactive; negative”; (Test System: AMES SALMONELLA TYPHIMURIUM, Strain/Indicator: TA98, Metabolic Activation: RAT, LIVER, S-9, PHENOBARBITONE, Method: STANDARD PLATE) “inactive; negative”; under setting [17], “inactive; negative”; (Test System: AMES SALMONELLA TYPHIMURIUM, Strain/Indicator: TA100, Metabolic Activation: RAT, LIVER, S-9, PHENOBARBITONE, Method: STANDARD PLATE) “inactive; negative”. Moreover, the mutagenic call was “inactive; negative” (Test System: AMES SALMONELLA TYPHIMURIUM, Strain/Indicator: TA104, Metabolic Activation: NONE, Method: STANDARD PLATE) and “inactive; negative” (Test System: AMES SALMONELLA TYPHIMURIUM, Strain/Indicator: TA104, Metabolic Activation: RAT, LIVER, S-9, PHENOBARBITONE, Method: STANDARD PLATE).
For `CC(C)CCC(C)Nc1ccc(NC(C)CCC(C)C)cc1` (stereo not given), the mutagenic call is “inactive; negative” under setting [1]; “inactive; negative” under setting [2]; “inactive; negative” under setting [3]; “inactive; negative” under setting [4]; “inactive; negative” under setting [5]; “inactive; negative” under setting [6]. Besides, the mutagenic call is “inactive; negative” under setting [7]; “inactive; negative” under setting [8]; “inactive; negative” under setting [9]; “inactive; negative” under setting [10]; “inactive; negative” under setting [11]; “inactive; negative” under setting [12].
`CCN(CCCCO)N=O`: the mutagenic call (Test System: AMES SALMONELLA TYPHIMURIUM, Strain/Indicator: TA1535, Metabolic Activation: RAT, LIVER, S-9, KC500 OR PHENOBARBITAL, Method: LIQUID SUSPENSION) was “active; positive”.
